IC50 data for 29 compounds are collected here from US20150031668A1, “CHROMAN DERIVATIVES AS TRPM8 INHIBITORS” (AMGEN INC., priority 2013, published 2015).

This experiment concerns the target T1, human TRPM8 (Homo sapiens, UniProt Q7Z2W7).
T1 construct: expressed in transfected cells; host or cells: Chinese hamster ovary (CHO) cells, T-REx tetracycline-inducible expression system (Invitrogen); co-transfected with pcDNA3.1 aequorin
Briefly: Luminescence readout assay for measuring intracellular calcium (aequorin, CHO cells expressing human TRPM8; icilin, L-menthol or cold activation). As to conditions: CHO cells expressing human TRPM8, icilin activation (1 μM), aequorin luminescence; read-out: hTRPM8 IC50. In kind it is cell-based. The method, boiled down: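 Activation was by 1 μM icilin, 100 μM L-menthol (test compound 2.5 min ahead) or cold buffer below 10° C (compound 1 min ahead). Calcium rise measured as aequorin luminescence in CHO cells with tetracycline-inducible human TRPM8.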

T1 sequence (Q7Z2W7 whole entry): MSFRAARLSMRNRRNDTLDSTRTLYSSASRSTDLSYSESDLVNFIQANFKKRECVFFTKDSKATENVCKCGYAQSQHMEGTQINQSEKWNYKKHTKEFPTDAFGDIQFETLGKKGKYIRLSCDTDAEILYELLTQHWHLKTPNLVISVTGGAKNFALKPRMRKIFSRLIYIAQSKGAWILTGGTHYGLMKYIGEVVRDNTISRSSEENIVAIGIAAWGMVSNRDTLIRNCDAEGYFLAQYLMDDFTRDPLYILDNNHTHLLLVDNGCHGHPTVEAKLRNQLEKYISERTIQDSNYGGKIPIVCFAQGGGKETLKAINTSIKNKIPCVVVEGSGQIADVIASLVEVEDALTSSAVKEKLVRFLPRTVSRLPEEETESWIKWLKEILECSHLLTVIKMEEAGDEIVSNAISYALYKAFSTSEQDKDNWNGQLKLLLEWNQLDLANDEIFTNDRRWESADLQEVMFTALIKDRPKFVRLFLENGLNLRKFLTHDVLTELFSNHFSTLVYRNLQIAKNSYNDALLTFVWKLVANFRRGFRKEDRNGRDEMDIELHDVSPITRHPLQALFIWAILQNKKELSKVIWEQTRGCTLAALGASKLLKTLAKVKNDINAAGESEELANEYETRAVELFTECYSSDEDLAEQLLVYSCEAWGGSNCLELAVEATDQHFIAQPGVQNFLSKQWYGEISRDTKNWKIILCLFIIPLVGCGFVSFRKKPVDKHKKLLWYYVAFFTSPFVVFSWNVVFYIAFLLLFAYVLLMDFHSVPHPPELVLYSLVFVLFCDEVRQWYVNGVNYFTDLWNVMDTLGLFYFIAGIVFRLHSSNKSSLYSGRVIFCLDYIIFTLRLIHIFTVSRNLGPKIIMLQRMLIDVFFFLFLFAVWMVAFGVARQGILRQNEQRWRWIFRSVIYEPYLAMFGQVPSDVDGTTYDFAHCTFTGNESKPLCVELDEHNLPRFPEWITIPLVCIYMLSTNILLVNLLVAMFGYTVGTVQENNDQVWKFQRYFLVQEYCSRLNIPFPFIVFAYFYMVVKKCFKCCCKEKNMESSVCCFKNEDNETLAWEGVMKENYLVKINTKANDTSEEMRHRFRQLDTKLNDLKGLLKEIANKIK

`Cc1cc(C(=O)N[C@]2(c3ccc(C(F)(F)F)c(F)c3)CCOc3cccnc32)ccc1C(=O)O` [Example 287, (S)-4-((4-(3-fluoro-4-(trifluoromethyl)phenyl)-3,4-dihydro-2H-pyrano[3,2-b]pyridin-4-yl)carbamoyl)-2-methylbenzoic acid]: the 50% inhibitory concentration (IC50) worked out at 17 nM. On to `Cc1cc(C(=O)N[C@]2(c3ccc(C(F)(F)F)cc3)CCOc3cccnc32)ccc1C(=O)O` [Example 288, (S)-2-methyl-4-((4-(4-(trifluoromethyl)phenyl)-3,4-dihydro-2H-pyrano[3,2-b]pyridin-4-yl)carbamoyl)benzoic acid], for which the IC50 turned out to be 45 nM. To `O=C(N[C@]1(c2ccc(OC(F)(F)F)c(F)c2)CCOc2cccnc21)c1ccc(C(=O)O)c(-c2ccccc2)c1` [Example 290, (S)-5-((4-(3-fluoro-4-(trifluoromethoxy)phenyl)-3,4-dihydro-2H-pyrano[3,2-b]pyridin-4-yl)carbamoyl)-[1,1′-biphenyl]-2-carboxylic acid] belongs 86 nM; to `CC(C)c1cc(C(=O)N[C@]2(c3ccc(OC(F)(F)F)c(F)c3)CCOc3cccnc32)ccc1C(=O)O` [Example 292, (S)-4-((4-(3-fluoro-4-(trifluoromethoxy)phenyl)-3,4-dihydro-2H-pyrano[3,2-b]pyridin-4-yl)carbamoyl)-2-isopropylbenzoic acid], 14 nM; to `CC(C)Cc1cc(C(=O)N[C@]2(c3ccc(OC(F)(F)F)c(F)c3)CCOc3cccnc32)ccc1C(=O)O` [Example 293, (S)-4-((4-(3-fluoro-4-(trifluoromethoxy)phenyl)-3,4-dihydro-2H-pyrano[3,2-b]pyridin-4-yl)carbamoyl)-2-isobutylbenzoic acid], 7 nM. Consider `CNc1cc(C(=O)N[C@]2(c3ccc(OC(F)(F)F)c(F)c3)CCOc3cccnc32)ccc1C(=O)O` [Example 294, (S)-4-((4-(3-fluoro-4-(trifluoromethoxy)phenyl)-3,4-dihydro-2H-pyrano[3,2-b]pyridin-4-yl)carbamoyl)-2-(methylamino)benzoic acid], for which the IC50 was 3 nM. As for `COC(=O)c1ccc(C(=O)N[C@]2(c3ccc(OC(F)(F)F)c(F)c3)CCOc3cccnc32)cc1NC(C)=O` [Example 295, (S)-methyl 2-acetamido-4-((4-(3-fluoro-4-(trifluoromethoxy)phenyl)-3,4-dihydro-2H-pyrano[3,2-b]pyridin-4-yl)carbamoyl)benzoate], the IC50 stood at 15 nM. `CNC(=O)c1ccc(C(=O)N[C@]2(c3ccc(OC(F)(F)F)c(F)c3)CCOc3cccnc32)cc1C` [Example 296, (S)—N4-(4-(3-fluoro-4-(trifluoromethoxy)phenyl)-3,4-dihydro-2H-pyrano[3,2-b]pyridin-4-yl)-N1,2-dimethylterephthalamide]: the IC50 came to 8 nM. As to `Cc1cc(C(=O)N[C@]2(c3ccc(OC(F)(F)F)c(F)c3)CCOc3cccnc32)ccc1C(=O)NC(C)(C)C` [Example 297, (S)—N1-(tert-butyl)-N4-(4-(3-fluoro-4-(trifluoromethoxy)phenyl)-3,4-dihydro-2H-pyrano[3,2-b]pyridin-4-yl)-2-methylterephthalamide], the IC50 came out at 26 nM.

Take `O=C(N[C@]1(c2ccc(OC(F)(F)F)c(F)c2)CCOc2cccnc21)c1ccc(C(=O)O)c(O)c1` [Example 298, (S)-4-((4-(3-fluoro-4-(trifluoromethoxy)phenyl)-3,4-dihydro-2H-pyrano[3,2-b]pyridin-4-yl)carbamoyl)-2-hydroxybenzoic acid]: the IC50 came out at 23 nM. To `Cn1cc(C(=O)N[C@]2(c3ccc(OC(F)(F)F)c(F)c3)CCOc3cccnc32)cc1C(=O)O` [Example 299, (S)-4-((4-(3-fluoro-4-(trifluoromethoxy)phenyl)-3,4-dihydro-2H-pyrano[3,2-b]pyridin-4-yl)carbamoyl)-1-methyl-1H-pyrrole-2-carboxylic acid] belongs 115 nM; to `O=C(N[C@]1(c2ccc(OC(F)(F)F)c(F)c2)CCOc2cccnc21)c1ccc(C(=O)O)c(C2CC2)c1` [Example 300, (S)-2-cyclopropyl-4-((4-(3-fluoro-4-(trifluoromethoxy)phenyl)-3,4-dihydro-2H-pyrano[3,2-b]pyridin-4-yl)carbamoyl)benzoic acid], 12 nM. Consider `Cc1[nH]c(C(=O)N[C@]2(c3ccc(OC(F)(F)F)c(F)c3)CCOc3cccnc32)cc1C(=O)O` [Example 301], for which the IC50 amounted to 266 nM. To `O=C(N[C@]1(c2ccc(OC(F)(F)F)c(F)c2)CCOc2cccnc21)c1ccc(C(=O)O)c(NC2CC2)c1` [Example 302, (S)-2-(cyclopropylamino)-4-((4-(3-fluoro-4-(trifluoromethoxy)phenyl)-3,4-dihydro-2H-pyrano[3,2-b]pyridin-4-yl)carbamoyl)benzoic acid] belongs 4 nM. Regarding `Cc1c(C(=O)O)cc(C(=O)N[C@]2(c3ccc(OC(F)(F)F)c(F)c3)CCOc3cccnc32)n1C` [Example 303], the IC50 was 28 nM.

Consider `CNc1cc(C(=O)N[C@]2(c3ccc(OC(F)(F)F)c(F)c3)CCOc3cccnc32)cc(F)c1C(=O)O` [Example 304, (S)-2-fluoro-4-((4-(3-fluoro-4-(trifluoromethoxy)phenyl)-3,4-dihydro-2H-pyrano[3,2-b]pyridin-4-yl)carbamoyl)-6-(methylamino)benzoic acid], for which the half-inhibitory concentration (IC50) turned out to be 28 nM.

For `COC(=O)c1ccc(C(=O)N[C@]2(c3ccc(OC(F)(F)F)c(F)c3)CCOc3cccnc32)n1C` [Example 305, (S)-methyl 5-((4-(3-fluoro-4-(trifluoromethoxy)phenyl)-3,4-dihydro-2H-pyrano[3,2-b]pyridin-4-yl)carbamoyl)-1-methyl-1H-pyrrole-2-carboxylate], the half-inhibitory concentration (IC50) is 15 nM.

Take `O=C(O)c1ccc(C(=O)N[C@]2(c3ccc(OC(F)(F)F)c(F)c3)CCOc3cccnc32)[nH]1` [Example 306, (S)-5-((4-(3-fluoro-4-(trifluoromethoxy)phenyl)-3,4-dihydro-2H-pyrano[3,2-b]pyridin-4-yl)carbamoyl)-1H-pyrrole-2-carboxylic acid]: the IC50 turned out to be 159 nM. For `O=C(NS(=O)(=O)c1ccccc1)c1ccc(C(=O)N[C@]2(c3ccc(OC(F)(F)F)c(F)c3)CCOc3cccnc32)nc1` [Example 307, (S)—N2-(4-(3-fluoro-4-(trifluoromethoxy)phenyl)-3,4-dihydro-2H-pyrano[3,2-b]pyridin-4-yl)-N5-(phenylsulfonyl)pyridine-2,5-dicarboxamide 2,2,2-trifluoroacetate] the value was 631 nM; for `O=C(N[C@]1(c2ccc(OC(F)(F)F)c(F)c2)CCOc2cccnc21)c1ccco1` [Example 308, (S)—N-(4-(3-fluoro-4-(trifluoromethoxy)phenyl)-3,4-dihydro-2H-pyrano[3,2-b]pyridin-4-yl)furan-2-carboxamide], 11 nM; for `CNC(=O)c1cccc(C(=O)N[C@]2(c3ccc(OC(F)(F)F)c(F)c3)CCOc3cccnc32)c1` [Example 309, (S)—N1-(4-(3-fluoro-4-(trifluoromethoxy)phenyl)-3,4-dihydro-2H-pyrano[3,2-b]pyridin-4-yl)-N3-methylisophthalamide], 55 nM. As to `Cc1cc(C(=O)N[C@]2(c3ccc(OC(F)(F)F)c(F)c3)CCOc3cccnc32)cc(C)c1C(=O)O` [Example 311, (S)-4-((4-(3-fluoro-4-(trifluoro-methoxy)phenyl)-3,4-dihydro-2H-pyrano[3,2-b]pyridin-4-yl)carbamoyl)-2,6-dimethylbenzoic acid], the IC50 is 155 nM. As to `O=C(O)c1ccc(C(=O)N[C@]2(c3ccc(OC(F)(F)F)cc3F)CCOc3cccnc32)nc1` [Example 312, (S)-6-((4-(2-fluoro-4-(trifluoro-methoxy)phenyl)-3,4-dihydro-2H-pyrano[3,2-b]pyridin-4-yl)carbamoyl) nicotinic acid], the IC50 came to 104 nM.

`COc1ccc(C(=O)N[C@]2(c3ccc(OC(F)(F)F)c(F)c3)CCOc3cccnc32)cc1C(=O)O` [Example 315, (S)-5-((4-(3-fluoro-4-(trifluoromethoxy)phenyl)-3,4-dihydro-2H-pyrano[3,2-b]pyridin-4-yl)carbamoyl)-2-methoxybenzoic acid]: the IC50 came to 834 nM. To `COc1ccc(C(=O)O)cc1C(=O)N[C@]1(c2ccc(OC(F)(F)F)c(F)c2)CCOc2cccnc21` [Example 316, (S)-3-((4-(3-fluoro-4-(trifluoro-methoxy)phenyl)-3,4-dihydro-2H-pyrano[3,2-b]pyridin-4-yl)carbamoyl)-4-methoxybenzoic acid] belongs 89 nM; to `O=C(O)c1ccc(S(=O)(=O)N[C@]2(c3ccc(OC(F)(F)F)c(F)c3)CCOc3cccnc32)cc1` [Example 317, (S)-4-(N-(4-(3-fluoro-4-(trifluoro-methoxy)phenyl)-3,4-dihydro-2H-pyrano[3,2-b]pyridin-4-yl)sulfamoyl) benzoic acid], 3340 nM. On to `O=C(N[C@]1(c2ccc(OC(F)(F)F)c(F)c2)CCOc2cccnc21)c1c[nH]c(C(=O)O)c1` [Example 320, (S)-4-((4-(3-fluoro-4-(trifluoro-methoxy)phenyl)-3,4-dihydro-2H-pyrano[3,2-b]pyridin-4-yl)carbamoyl)-1H-pyrrole-2-carboxylic acid], for which the IC50 was found to be 3700 nM. Consider `Cn1c(C(=O)O)cc2ccc(C(=O)N[C@]3(c4ccc(OC(F)(F)F)c(F)c4)CCOc4cccnc43)cc21` [Example 322, (S)-6-((4-(3-fluoro-4-(trifluoro-methoxy)phenyl)-3,4-dihydro-2H-pyrano[3,2-b]pyridin-4-yl)carbamoyl)-1-methyl-1H-indole-2-carboxylic acid], for which the IC50 came out at 9 nM. To `CC(=O)Nc1cc(C(=O)N[C@]2(c3ccc(OC(F)(F)F)c(F)c3)CCOc3cccnc32)ccc1C(=O)O` [Example 323, (S)-2-acetamido-4-((4-(3-fluoro-4-(trifluoro-methoxy)phenyl)-3,4-dihydro-2H-pyrano[3,2-b]pyridin-4-yl)carbamoyl) benzoic acid] belongs 316 nM.
